These results are taken from patent US10822317B2, “Methods and compositions for wound healing” (QBiotics Limited, priority 2013, dated 2020).

In experiment [1] the test system is human neonatal fibroblasts. The experiment can be described thus: Scratch closure, human neonatal fibroblasts, Method 2. The experiment is classed as cell-based. To be noted: 200 ng/mL. As for the experimental part: The ability of early. passage neonatal foreskin fibroblasts (NFF) cultured in RPMI 1640-10% foetal calf serum to migrate across a scratch wound made in a confluent monolayer following treatment with purified compounds or plant extracts was determined using one or more of the following three methods.
Cells were seeded in 6 mm wells (96-well plates) or 16 mm (24-well plates), with 2 to 6 replicate wells/dilution, and treated as in Method 1. Immediately after treatment, the scratch edges were outlined on the underside of the well with a fine point felt pen. After fixing and staining, migration was assessed under the microscope with the aid of a graticule, scoring migration as 0, 25, 50, 75 or 100% (total closure) of the initial width. Accelerated wound closure was considered to be significant if mean quartile of replicates was […] that of untreated controls (p<0.05, t-test). In addition, “wound” areas were created by seeding cells in the presence of 3 mm stainless steel pins (96-well plate), or by inserting flat-edged Teflon rings. These devices were removed after overnight incubation of the NFF cells.

Experiment [2] has as its system wounds following necrosis and sloughing of spontaneous tumours. The experiment can be described thus: Resolution of wounds after sloughing of spontaneous tumours treated by intratumoural injection, canine. The experiment is classed as in vivo. Particulars: for Average days from tumour slough to wound closure: Canine. As to the method: necrosis and sloughing of spontaneous tumours that had been treated by intratumoural injection of Compound 1 (30% 1,2 propanediol formulation at either 0.5 or 1.0 mg/mL concentration) in twenty-four companion animals are summarised in Table 17.
Note that all wounds were managed as open wounds and no bandaging, dressings, lotions or concomitant medications were used in any of these cases.

With `CC=C(C)C(=O)OC1C(C)C2(O)C(C3OC3(CO)C(O)C3(O)C(=O)C(C)=CC32)C2C(C)(C)C12OC(=O)C(C)CC` (stereo not shown) [Compound 1, 12-tigloyl-13-(2-methylbutanoyl)-6,7-epoxy-4,5,9,12,13,20-hexahydroxy-1-tigliaen-3-one], the “% closure compared to control” value in experiment [1] is reported as 180%. In addition, the “No. of dogs: Tissue deficit at wound site, Minor” value in experiment [2] (5 to 10% tissue deficit across the original wound area) came out at 0. For the same compound, the “No. of dogs: Tissue deficit at wound site, Nil or minimal” value in experiment [2] (<5% tissue deficit across the original wound area) worked out at 15. The “No. of dogs: Tissue deficit at wound site, Substantial” value in experiment [2] (>10% tissue deficit across the original wound area) is 0. Moreover, the “Average days from tumour slough to wound closure” value (from here on “Average days from tumour slough”) in experiment [2] (wound size class 0.25 to 9 cm^2, 7 cases) came to 24 ± 16 days. For the same compound, in experiment [2] (wound size class 9 to 50 cm^2, 5 cases), the “Average days from tumour slough” value was determined as 40 ± 15 days. For the same compound, the “Average days from tumour slough” value in experiment [2] (wound size class >50 to 130 cm^2, 3 cases) came to 62 ± 18 days. For the same compound, the “No. of dogs: Hair regrowth on wound area, Sparse” value in experiment [2] (Hair covers <50% of original wound area) was 7. Further, the “No. of dogs: Hair regrowth on wound area, Partial” value in experiment [2] (Hair covers >50% of original wound area) amounted to 1. Further, the “No. of dogs: Hair regrowth on wound area, Full” value in experiment [2] (Hair covers >95% of original wound area) came out at 12. Further, the “No. of dogs: Scarring & skin thickening, Minor” value in experiment [2] (Localised scar covering <10% of original wound area) came to 1. The “No. of dogs: Scarring & skin thickening, Substantial” value in experiment [2] (Scarring covering >10% of original wound area) is 1. Besides, the “No. of dogs: Scarring & skin thickening, Nil or minimal” value in experiment [2] (Scarring not obvious visually or by touch) worked out at 13. Also, in experiment [2] (healed wound site), the “No. of dogs: Change in hair colour, No” value is on record as 15; the “No. of dogs: Change in hair colour, Yes” value is 0; the “No. of dogs: Skin pigmentation, Hyperpigmentation” value amounted to 0; the “No. of dogs: Skin pigmentation, Hypopigmentation” value was found to be 3. In addition, in experiment [2] (healed wound site), the “No. of dogs: Skin pigmentation, Normal” value was 11 and the “No. of dogs: Skin pigmentation, Patchy” value is 1.
